{"source": "patent US6403139B1", "about": "“Process for treating fruit and vegetables using tocopherols as antioxidants” (Xeda International, priority 1999, dated 2002)", "tested_on": "Granny Smith apples", "experiment": "Anti-scald treatment on apples, treating composition applied for 3 minutes by immersion or spraying, then 8 days storage at 20° C.", "protocol": "The examples which follow illustrate the invention in further detail. In these examples, the treating composition, preheated to 50° C., is applied for 3 minutes to Granny Smith apples, by immersion or spraying. Treating composition (Composition A) consists of water and 1500 ppm of α-tocopherol. The treatment is carried out by applying the treating composition, brought to 50° C., to the apples for 3 minutes. The treated apples are then stored at ambient temperature (20° C.) for 8 days. The proportion of healthy apples, the proportion of apples for which less than 1 cm^2 of surface area is deteriorated by scald, and the proportion of apples for which more than 1 cm^2 of surface area is affected are then quantified. The apples are treated under the same conditions as in Example 1. By way of additional comparison, the same amount of apples was treated with composition D maintained at ambient temperature (i.e. between 20 and 22° C.). The apples thus treated were then stored for 8 days at ambient temperature (20° C.)."}
{"compound": "Cc1c(C)c2c(c(C)c1O)CC[C@@](C)(CCC[C@H](C)CCC[C@H](C)CCCC(C)C)O2", "note": "[vitamin e, 5,7,8-trimethyltocol]", "values": [{"measurement": "antioxidant activity at ambient temperature", "result": "virtually zero"}]}
